Columns and labels:
water solubility = format: physicochemical
[1] = target: T1, recombinant human 5-HT1A receptor (Homo sapiens, UniProt P08908); assay: selectivity for α1a receptor relative to 5-HT1A receptor; format: binding
T1 sequence (P08908 1-422): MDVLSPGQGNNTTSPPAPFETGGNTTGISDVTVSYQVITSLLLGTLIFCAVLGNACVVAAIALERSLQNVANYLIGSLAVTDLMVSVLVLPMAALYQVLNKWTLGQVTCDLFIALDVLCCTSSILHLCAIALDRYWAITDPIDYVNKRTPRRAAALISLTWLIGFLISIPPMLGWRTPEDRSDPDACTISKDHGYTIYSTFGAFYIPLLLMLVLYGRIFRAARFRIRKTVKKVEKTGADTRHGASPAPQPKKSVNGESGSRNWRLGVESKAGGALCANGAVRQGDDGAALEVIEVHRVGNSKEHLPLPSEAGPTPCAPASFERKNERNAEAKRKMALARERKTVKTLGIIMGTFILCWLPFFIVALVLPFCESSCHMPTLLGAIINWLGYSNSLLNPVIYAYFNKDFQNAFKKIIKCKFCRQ

α1b receptor = target: T2, α1b receptor (Homo sapiens, UniProt P35368); assay: selectivity for α1a receptor compared to α1b receptor; format: binding
T2 sequence (P35368 1-520): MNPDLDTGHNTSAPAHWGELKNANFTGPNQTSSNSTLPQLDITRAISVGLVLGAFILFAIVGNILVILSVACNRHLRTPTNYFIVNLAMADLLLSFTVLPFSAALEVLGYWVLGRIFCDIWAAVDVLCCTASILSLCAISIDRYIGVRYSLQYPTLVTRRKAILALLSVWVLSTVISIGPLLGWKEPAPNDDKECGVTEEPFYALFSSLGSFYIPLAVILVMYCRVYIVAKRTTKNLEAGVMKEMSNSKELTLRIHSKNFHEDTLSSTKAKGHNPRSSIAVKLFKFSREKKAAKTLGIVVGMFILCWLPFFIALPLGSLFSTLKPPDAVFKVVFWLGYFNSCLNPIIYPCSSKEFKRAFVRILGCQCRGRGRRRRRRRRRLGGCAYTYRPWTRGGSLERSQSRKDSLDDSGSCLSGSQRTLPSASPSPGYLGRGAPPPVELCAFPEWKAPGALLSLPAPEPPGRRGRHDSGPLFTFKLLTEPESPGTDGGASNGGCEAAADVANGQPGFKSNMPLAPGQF

α1d receptor = target: T3, α1d receptor (Homo sapiens, UniProt P25100); assay: selectivity for α1a receptor compared to α1d receptor; format: binding
T3 sequence (P25100 1-572): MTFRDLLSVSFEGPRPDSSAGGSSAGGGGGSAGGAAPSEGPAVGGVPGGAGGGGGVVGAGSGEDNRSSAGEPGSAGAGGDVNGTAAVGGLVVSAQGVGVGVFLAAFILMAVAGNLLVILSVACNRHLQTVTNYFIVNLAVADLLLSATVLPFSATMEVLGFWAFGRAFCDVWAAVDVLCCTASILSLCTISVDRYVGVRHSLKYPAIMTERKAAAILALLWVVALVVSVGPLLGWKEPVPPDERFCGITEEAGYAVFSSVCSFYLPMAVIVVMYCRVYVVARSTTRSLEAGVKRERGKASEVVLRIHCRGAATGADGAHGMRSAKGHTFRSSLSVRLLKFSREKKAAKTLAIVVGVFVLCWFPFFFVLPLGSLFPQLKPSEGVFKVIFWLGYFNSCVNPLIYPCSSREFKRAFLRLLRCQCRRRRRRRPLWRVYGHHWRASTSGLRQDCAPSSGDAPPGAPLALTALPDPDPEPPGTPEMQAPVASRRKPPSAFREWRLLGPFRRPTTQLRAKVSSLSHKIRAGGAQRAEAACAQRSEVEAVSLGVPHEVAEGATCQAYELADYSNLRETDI

stability of solid form = format: physicochemical
[2] = target: T4, recombinant human α1a receptor (Homo sapiens, UniProt P35348); details: cited from earlier work
T4 sequence (P35348 1-466): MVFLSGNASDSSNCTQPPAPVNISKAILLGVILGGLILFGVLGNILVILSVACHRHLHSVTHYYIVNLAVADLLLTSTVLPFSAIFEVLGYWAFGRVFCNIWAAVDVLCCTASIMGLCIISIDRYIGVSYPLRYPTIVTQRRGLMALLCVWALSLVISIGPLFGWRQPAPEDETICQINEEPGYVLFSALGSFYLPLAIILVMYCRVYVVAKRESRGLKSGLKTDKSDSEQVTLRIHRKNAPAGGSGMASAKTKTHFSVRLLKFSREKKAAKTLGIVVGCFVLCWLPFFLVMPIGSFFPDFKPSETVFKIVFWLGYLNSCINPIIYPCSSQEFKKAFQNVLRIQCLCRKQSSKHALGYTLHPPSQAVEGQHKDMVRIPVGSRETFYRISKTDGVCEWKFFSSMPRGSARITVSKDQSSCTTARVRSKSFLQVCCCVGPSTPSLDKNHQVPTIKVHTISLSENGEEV

α1L receptor = details: isolated rabbit aorta model system; cited from earlier work

Row | solubility (water solubility; water, at 25° C.) | selectivity for the recombinant human α1a receptor relative to the recombinant human 5-HT1A receptor [1] | selectivity for α1a receptor as compared to the α1b receptor (α1b receptor) | selectivity for α1a receptor as compared to the α1d receptor (α1d receptor) | heat stability / stability (in words) (stability of solid form) | Compound | water solubility (in words) (water solubility) | affinity for the α1a receptor [2] | functional antagonism of the α1L receptor (α1L receptor)
1 | 100 mg/mL | – | – | – | – | COc1ccccc1N1CCN(CCCNC(=O)c2csc3c(=O)cc(C(F)(F)F)oc23)CC1.CS(=O)(=O)O [Example 2A, N-{3-[4-(2-methoxyphenyl)-1-piperazinyl]propyl}-7-oxo-5-trifluoromethyl-7H-thieno[3,2-b]pyran-3-carboxamide mesylate salt] | improved water solubility compared to the free base | – | –
2 | – | ~45 fold | ~40 fold | ~6 fold | heat instability | COc1ccccc1N1CCN(CCCNC(=O)c2csc3c(=O)cc(C(F)(F)F)oc23)CC1 [Example 1, N-{3-[4-(2-methoxyphenyl)-1-piperazinyl]propyl}-7-oxo-5-trifluoromethyl-7H-thieno[3,2-b]pyran-3-carboxamide] | poor water solubility | high affinity | functional antagonism
